Consider 30 molecules from US20240391931A1 (Bristol-Myers Squibb Company, priority 2021, published 2024).

The assay has as its target HER2YVMA (Homo sapiens, UniProt P04626, INS775YVMA). Description: HER2 signaling (pHER2) in Hek293-HER2YVMA cells. Type of assay: cell-based. Further details: expressed in transfected cells; host or cells: HEK293 (pool), Ba/F3 (clones), BEAS2B (clones); lentiviral vector pCDH-CMV-MCS-EF1-Neo. Conditions: 1.5 hr compound, 1% FBS, read-out: HEKYVMA pHER2 EC50. How it is done: Cell culture, plasmid cloning, and lentiviral transduction were carried out according to standard procedures. The Human HER2 cDNA construct in pCMV6-Entry for the HER2 wildtype (WT) expression was obtained from Origene. The HER2 cDNA including the 12-nucleotide insertion corresponding to YVMA insertion (HER2YVMA) was codon optimized, synthesized and cloned by GenScript (Piscataway, NJ) in pcDNA3.1. The lentiviral constructs expressing HER2YVMA and HER2 WT were sub-cloned using PCR at System Biosciences (SBI, Mountainview, CA) into lentiviral vectors pCDH-CMV-MCS-EF1-Neo and lentiviral particles were generated.
Engineered lines expressing HER2YVMA and HER2 WT were prepared in HEK293 (human embryonic kidney cells), Ba/F3 (Interleukin 3 (IL3)-dependent murine pro B cell line), and BEAS2B (primary immortalized human bronchial epithelial cell line). Ba/F3, BEAS2B, and HEK293 cells were obtained from the American Type Culture Collection (ATCC, Manassas, VA). Parental Ba/F3 cells were grown in suspension in complete RPMI 1640 supplemented with 10% FBS and 1% P/S and 10 ng/ml interleukin 3 (IL3, Sigma-Aldrich). Hek293 and BEAS2B cells were grown as monolayers in DMEM supplemented with 10% FBS and 1% P/S. All cells were maintained and propagated in a humidified 5% CO2 incubator at 37° C.
To generate Ba/F3, BEAS2B, and Hek-293 cells engineered with lentivirus to express HER2 WT or HER2YVMA, the cells were transduced with lentiviruses at multiplicity of infection (MOI) of 1 or 10; transduced cells were selected and maintained with G418 ([…]) (Geneticin, Life Technologies, Carlsbad, CA). Ba/F3 engineered cells were subjected to gradual withdrawal of interleukin 3 (IL-3, Sigma-Aldrich). After selection, IL3 independent Ba/F3 HER2YVMA, and BEAS2B HER2YVMA cells were cloned by limiting dilution. Hek293 HER2YVMA cells were used as pool. HER2 and phospho HER2 levels were confirmed by flow cytometery and immunoassay (MSD, Meso-Scale Discovery, Rockville, Maryland).
HER2 signaling was assessed in BT474 and N87 cell lines which endogenously overexpress the HER2 wildtype (WT) protein, in NCI-H1781 cells which endogenously expresses a HER2 mutant protein containing a VC insertion in the kinase domain (HER2VC or G776delinsVC), and in engineered cell lines transduced to express the Her2 mutant protein containing the YVMA insertion (Hek293-HER2YVMA and BEAS2B-HER2YVMA).
BT474, N87, and NCI-H1781 were plated in 96-well tissue-culture treated plates (Corning Costar, Sigma-Aldrich) in full media and incubated overnight. Hek293-HER2YVMA and BEAS2B-HER2YVMA cells were plated in 96-well poly-D-lysine treated plates (BD Bioscience, San Jose, CA). For treatment with test compounds, the media was replaced with corresponding low serum media (1% FBS) containing test compound at 1.1, 0.37, 0.12, 0.041, 0.014, 0.005, 0.0014, 0.0005 μM or DMSO control (0.1%). Cells were incubated with compound for 1.5 hr at 37° C. After compound treatment, the media was removed and cells were lysed for 30 min on ice in complete MSD lysis buffer (prepared using MSD base lysis buffer (Meso-Scale Discovery) supplemented with cOmplete, EDTA-free Protease inhibitor cocktail (Roche), Phosphatase Inhibitor Cocktails 2 and 3 (Sigma-Aldrich), and 1 mM PMSF (Sigma-Aldrich)). Lysates were stored at −70° C. until further analysis.
HER2 signaling was evaluated using phospho (Tyr1248)/total ErbB2 whole cell lysate MSD plates (Meso-Scale Discovery, Gaithersburg, MD). The phospho HER2 signal was normalized to total HER2 for each sample; results are reported as % DMSO control. The normalized data was fitted using a sigmoidal curve analysis program (Graph Pad Prism version 6) with variable Hill slope to determine EC50 values.
The HER2 signaling results are provided in Table 4, under columns titled “BT474-pHER2 EC50”, “N87-pHER2 EC50”, and “NCI-H1781-pHER2 EC50”. […]

Chain of HER2YVMA (P04626 with tags, fused parts or gaps INS775YVMA): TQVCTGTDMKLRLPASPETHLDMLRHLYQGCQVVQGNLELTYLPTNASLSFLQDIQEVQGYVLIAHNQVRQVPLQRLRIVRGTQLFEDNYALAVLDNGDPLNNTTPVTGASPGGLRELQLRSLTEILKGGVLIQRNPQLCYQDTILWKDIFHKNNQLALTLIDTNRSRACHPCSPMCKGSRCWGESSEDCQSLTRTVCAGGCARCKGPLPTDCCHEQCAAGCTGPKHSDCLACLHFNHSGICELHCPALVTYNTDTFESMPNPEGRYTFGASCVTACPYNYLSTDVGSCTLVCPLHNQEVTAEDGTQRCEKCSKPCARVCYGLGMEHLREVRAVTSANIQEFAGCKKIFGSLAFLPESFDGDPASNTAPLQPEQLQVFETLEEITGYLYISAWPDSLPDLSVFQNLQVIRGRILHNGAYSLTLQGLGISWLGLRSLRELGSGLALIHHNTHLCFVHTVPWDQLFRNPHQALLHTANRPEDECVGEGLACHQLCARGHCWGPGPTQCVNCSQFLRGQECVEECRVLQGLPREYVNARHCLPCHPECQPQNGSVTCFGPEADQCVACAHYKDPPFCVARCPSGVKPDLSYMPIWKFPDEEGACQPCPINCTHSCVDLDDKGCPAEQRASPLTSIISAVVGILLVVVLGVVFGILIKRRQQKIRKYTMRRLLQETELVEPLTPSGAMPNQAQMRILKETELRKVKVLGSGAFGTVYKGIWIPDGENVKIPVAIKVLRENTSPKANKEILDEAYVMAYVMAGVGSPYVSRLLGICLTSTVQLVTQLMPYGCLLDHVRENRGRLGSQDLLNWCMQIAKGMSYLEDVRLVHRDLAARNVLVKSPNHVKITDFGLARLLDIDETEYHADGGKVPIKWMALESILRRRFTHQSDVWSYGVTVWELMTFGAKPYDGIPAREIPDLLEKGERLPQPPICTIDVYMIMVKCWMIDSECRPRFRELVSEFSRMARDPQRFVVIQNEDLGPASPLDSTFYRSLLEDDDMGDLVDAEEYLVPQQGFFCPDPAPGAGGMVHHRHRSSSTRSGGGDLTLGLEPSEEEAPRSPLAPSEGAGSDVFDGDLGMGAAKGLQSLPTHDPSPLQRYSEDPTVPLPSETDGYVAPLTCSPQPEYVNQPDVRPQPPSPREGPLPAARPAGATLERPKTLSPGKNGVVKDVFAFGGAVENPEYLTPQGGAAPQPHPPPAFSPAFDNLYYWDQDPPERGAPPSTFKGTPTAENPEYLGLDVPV

As for `Cc1ccc(Oc2ccc(Nc3ncnc4sc5c(c34)CCN(C(=O)/C=C/CN3CC4(CCCC4)C3)C5)cc2C)cn1` [Compound 123], the EC50 was less than 0.1 µM.

Regarding `Cc1ccc(Oc2ccc(Nc3ncnc4sc5c(c34)CC(C)N(C(=O)C=CCN(C)C)C5C)cc2C)cn1` (single isomer, unassigned) [Compound 162], the EC50 was in the range of 0.1 to 0.35 µM.

As to `Cc1ccc(Oc2ccc(Nc3ncnc4sc5c(c34)C(C)CN(C(=O)C=CCN(C)C(C)(C)C)C5)cc2C)cn1` (single isomer, unassigned) [Compound 179], the EC50 is less than 0.1 µM.

On to `Cc1ccc(Oc2ccc(Nc3ncnc4sc5c(c34)CCN(C(=O)/C=C/CN3CC[C@@H](CO)C3)C5)cc2C)cn1` [Compound 132], for which the EC50 is less than 0.1 µM.

Take `Cc1ccc(Oc2ccc(Nc3ncnc4sc5c(c34)CN(C(=O)C=CCN(C)C)C5C)cc2C)cn1` (single isomer, unassigned) [Compound 169]: the EC50 was less than 0.1 µM.

As to `Cc1ccc(Oc2ccc(Nc3ncnc4sc5c(c34)C(C)CN(C(=O)/C=C/CN(C)C(C)(C)C)C5)cc2C)cn1` (stereo not drawn) [Compound 175], the EC50 was less than 0.1 µM.

As to `Cc1ccc(Oc2ccc(Nc3ncnc4sc5c(c34)CN(C(=O)/C=C/CN(C)C)CC5)cc2C)cn1` [Compound 108, (E)-4-(Dimethylamino)-1-(4-((3-methyl-4-((6-methylpyridin-3-yl)oxy)phenyl)amino)-7,8-dihydropyrido[3′,4′:4,5]thieno[2,3-d]pyrimidin-6(5H)-yl)but-2-en-1-one], the EC50 was less than 0.1 µM.

Consider `Cc1ccc(Oc2ccc(Nc3ncnc4sc5c(c34)CCN(C(=O)/C=C/CN3CC(F)(CO)C3)C5)cc2C)cn1` [Compound 151], for which the EC50 was in the range of 0.1 to 0.35 µM.

Regarding `Cc1ccc(Oc2ccc(Nc3ncnc4sc5c(c34)CCN(C(=O)/C=C/CN3CC[C@H](CO)C3)C5)cc2C)cn1` [Compound 133], the EC50 was less than 0.1 µM.

In the case of `Cc1ccc(Oc2ccc(Nc3ncnc4sc5c(c34)C(C)N(C(=O)C=CCN(C)C)C5)cc2C)cn1` (single isomer, unassigned) [Compound 147], the EC50 was less than 0.1 µM.

Take `COc1ccc(Oc2ccc(Nc3ncnc4sc5c(c34)CCN(C(=O)/C=C/CN3CCOCC3)C5)cc2C)cn1` [Compound 164]: the EC50 was less than 0.1 µM.

Turning to `Cc1cc(Nc2ncnc3sc4c(c23)CCN(C(=O)/C=C/CN(C)C)CC4)ccc1Oc1ccn2ccnc2c1` [Compound 172, (E)-4-(Dimethylamino)-1-(4-((4-(imidazo[1,2-a]pyridin-7-yloxy)-3-methylphenyl)amino)-8,9-dihydro-5H-pyrimido[5′,4′:4,5]thieno[2,3-d]azepin-7(6H)-yl)but-2-en-1-one], the EC50 was in the range of 0.1 to 0.35 µM.

`Cc1ccc(Oc2ccc(Nc3ncnc4sc5c(c34)CCN(C(=O)/C=C/CN3CCC(O)C(C)(C)C3)C5)cc2C)cn1` (stereo not drawn) [Compound 114]: the EC50 is less than 0.1 µM.

With `Cc1cc(Nc2ncnc3sc4c(c23)CN(C(=O)/C=C/CN(C)C)C4)ccc1Oc1ccc2ncnn2c1` [Compound 111, (E)-1-(4-((4-([1,2,4]Triazolo[1,5-a]pyridin-6-yloxy)-3-methylphenyl)amino)-5H-pyrrolo[3′,4′:4,5]thieno[2,3-d]pyrimidin-6(7H)-yl)-4-(dimethylamino)but-2-en-1-one], the concentration giving a half-maximal response (EC50) was 0.1 to 0.35 µM.

`Cc1cc(Nc2ncnc3sc4c(c23)CN(C(=O)/C=C/CN(C)C)C4)ccc1Oc1ccn2ncnc2c1` [Compound 130, (E)-1-(4-((4-([1,2,4]Triazolo[1,5-a]pyridin-7-yloxy)-3-methylphenyl)amino)-5H-pyrrolo[3′,4′:4,5]thieno[2,3-d]pyrimidin-6(7H)-yl)-4-(dimethylamino)but-2-en-1-one]: the EC50 is less than 0.1 µM.

For `Cc1ccc(Oc2ccc(Nc3ncnc4sc5c(c34)CCN(C(=O)/C=C/CN3CCC[C@H](n4cccn4)C3)C5)cc2C)cn1` [Compound 112], the EC50 is less than 0.1 µM.

Turning to `Cc1ccc(Oc2ccc(Nc3ncnc4sc5c(c34)CCN(C(=O)/C=C/CN3CCCCC3(C)CO)C5)cc2C)cn1` (stereo not drawn) [Compound 119], the EC50 was less than 0.1 µM.

Regarding `CCN(CC)C/C=C/C(=O)N1CCc2c(sc3ncnc(Nc4ccc(Oc5ccc(OC)nc5)c(C)c4)c23)C1` [Compound 137], the concentration giving a half-maximal response (EC50) is less than 0.1 µM.

For `Cc1ccc(Oc2ccc(Nc3ncnc4sc5c(c34)CCN(C(=O)/C=C/CN3CC(C)(C)OC(C)(C)C3)C5)cc2C)cn1` [Compound 121], the EC50 was less than 0.1 µM.

Consider `Cc1ccc(Oc2ccc(Nc3ncnc4sc5c(c34)CCN(C(=O)/C=C/CN3CCC[C@@H](CO)C3)C5)cc2C)cn1` [Compound 154], for which the EC50 is less than 0.1 µM.

Consider `C=CC(=O)N1Cc2sc3ncnc(Nc4ccc(Oc5ccc(C)nc5)c(C)c4)c3c2C(C)C1` (stereo not drawn) [Compound 142, 1-(5-methyl-4-((3-methyl-4-((6-methylpyridin-3-yl)oxy)phenyl)amino)-5,6-dihydropyrido[4′,3′:4,5]thieno[2,3-d]pyrimidin-7(8H)-yl)prop-2-en-1-one], for which the EC50 is less than 0.1 µM.

Regarding `Cc1cc(Nc2ncnc3sc4c(c23)CCN(C(=O)/C=C/CN(C)C)C4)ccc1Oc1ccc2nccn2c1` [Compound 109, (E)-4-(dimethylamino)-1-(4-((4-(imidazo[1,2-a]pyridin-6-yloxy)-3-methylphenyl)amino)-5,6-dihydropyrido[4′,3′:4,5]thieno[2,3-d]pyrimidin-7(8H)-yl)but-2-en-1-one], the EC50 was less than 0.1 µM.

Regarding `COc1ccc(Oc2ccc(Nc3ncnc4sc5c(c34)C(C)CN(C(=O)/C=C/CN(C)C)C5)cc2C)cn1` (stereo not drawn) [Compound 152, (E)-4-(dimethylamino)-1-(4-((4-((6-methoxypyridin-3-yl)oxy)-3-methylphenyl)amino)-5-methyl-5,8-dihydropyrido[4′,3′:4,5]thieno[2,3-d]pyrimidin-7(6H)-yl)but-2-en-1-one], the EC50 was less than 0.1 µM.

As to `Cc1ccc(Oc2ccc(Nc3ncnc4sc5c(c34)CCN(C(=O)/C=C/CN3CC[C@H](F)C3)C5)cc2C)cn1` [Compound 124], the EC50 was less than 0.1 µM.

`O=C(/C=C/CN1CCOCC1)N1CCc2c(sc3ncnc(Nc4ccc(Oc5ccc6ncnn6c5)c(Cl)c4)c23)C1` [Compound 18]: the EC50 is less than 0.1 µM.

Take `COc1ccc(Oc2ccc(Nc3ncnc4sc5c(c34)CCN(C(=O)/C=C/CN3CC[C@H](CO)C3)C5)cc2C)cn1` [Compound 140]: the EC50 is less than 0.1 µM.

Regarding `Cc1cc(Nc2ncnc3sc4c(c23)CCN(C(=O)/C=C/CN(C)C)CC4)ccc1Oc1ccn2ncnc2c1` [Compound 168], the EC50 is 0.1 to 0.35 µM.

In the case of `COc1ccc(Oc2ccc(Nc3ncnc4sc5c(c34)C(C)CN(C(=O)C=CCN(C)C)C5)cc2C)cn1` (single isomer, unassigned) [Compound 160], the EC50 was less than 0.1 µM.

`C=CC(=O)N1CCc2c(sc3ncnc(Nc4ccc(Oc5cccnc5)c(C)c4)c23)C1` [Compound 11, 1-(4-((3-methyl-4-(pyridin-3-yloxy)phenyl)amino)-5,8-dihydropyrido[4′,3′:4,5]thieno[2,3-d]pyrimidin-7(6H)-yl)prop-2-en-1-one]: the EC50 is less than 0.1 µM.

Turning to `C=CC(=O)N1Cc2sc3ncnc(Nc4ccc(Oc5ccc(C)nc5)c(C)c4)c3c2C(C)C1` (single isomer, unassigned) [Compound 146], the EC50 was less than 0.1 µM.
